Measured values taken from ChEMBL document CHEMBL5500426, “Directly Suppressing MYC Function with Novel Alkynyl-Substituted Phenylpyrazole Derivatives that Induce Protein Degradation and Perturb MYC/MAX Interaction” (J Med Chem, 2024).
pIC50: −log10 of the molar value. The source made the active and inactive calls. The rule behind the calls is not given here.

Legend:
[1] = system: PC-3; experiment: Antiproliferative activity against human PC-3 cells assessed as inhibition of cell growth incubated for 72 hrs by MTT assay; format: functional, cell-based; conditions: PC-3, 72 h
[2] = biological target: Myc proto-oncogene protein (Homo sapiens) (UniProt P01106); experiment: Inhibition of MYC in human PC-3 cells assessed as downregulation of MYC expression incubated for 24 hrs by Western blotting analysis; format: cell-based
Sequence of Myc proto-oncogene protein (Homo sapiens) (P01106 whole entry): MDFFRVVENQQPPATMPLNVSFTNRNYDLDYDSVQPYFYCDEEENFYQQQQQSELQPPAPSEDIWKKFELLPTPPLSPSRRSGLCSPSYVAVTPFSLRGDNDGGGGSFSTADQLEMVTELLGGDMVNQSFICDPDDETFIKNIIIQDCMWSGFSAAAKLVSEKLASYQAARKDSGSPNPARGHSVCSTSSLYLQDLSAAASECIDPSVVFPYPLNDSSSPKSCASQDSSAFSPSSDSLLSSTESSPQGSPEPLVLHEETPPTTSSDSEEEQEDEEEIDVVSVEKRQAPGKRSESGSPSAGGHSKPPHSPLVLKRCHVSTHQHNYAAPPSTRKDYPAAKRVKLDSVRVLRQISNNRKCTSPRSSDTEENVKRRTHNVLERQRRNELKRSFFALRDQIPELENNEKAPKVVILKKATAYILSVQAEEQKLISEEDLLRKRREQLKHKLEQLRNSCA

[3] = system: Myc-CaP; experiment: Antiproliferative activity against mouse Myc-CaP cells assessed as inhibition of cell growth incubated for 72 hrs by MTT assay; format: functional, cell-based
[4] = system: SGC-7901; experiment: Antiproliferative activity against human SGC-7901 cells assessed as inhibition of cell growth incubated for 72 hrs by MTT assay; format: functional, cell-based; conditions: SGC-7901, 72 h
[5] = system: HL-60; experiment: Antiproliferative activity against human HL-60 cells assessed as inhibition of cell growth incubated for 72 hrs by MTT assay; format: functional, cell-based; conditions: HL-60, 72 h
[6] = system: HepG2; experiment: Antiproliferative activity against human HepG2 cells assessed as inhibition of cell growth incubated for 72 hrs by MTT assay; format: functional, cell-based; conditions: HepG2, 72 h
[7] = system: MDA-MB-231; experiment: Antiproliferative activity against human MDA-MB-231 cells assessed as inhibition of cell growth incubated for 72 hrs by MTT assay; format: functional, cell-based; conditions: MDA-MB-231, 72 h
[8] = system: A549; experiment: Antiproliferative activity against human A549 cells assessed as inhibition of cell growth incubated for 72 hrs by MTT assay; format: functional, cell-based; conditions: A549, 72 h
[9] = system: SK-OV-3; experiment: Antiproliferative activity against human SK-OV-3 cells assessed as inhibition of cell growth incubated for 72 hrs by MTT assay; format: functional, cell-based; conditions: SK-OV-3, 72 h
[10] = Cytotoxicity against human GES1 cells assessed as inhibition of cell growth incubated for 72 hrs by MTT assay; format: toxicity, cell-based
[11] = system: MDA-MB-468; experiment: Antiproliferative activity against human MDA-MB-468 cells assessed as inhibition of cell growth incubated for 72 hrs by MTT assay; format: functional, cell-based; conditions: MDA-MB-468, 72 h
[12] = system: MV4-11; experiment: Antiproliferative activity against human MV4-11 cells assessed as inhibition of cell growth incubated for 72 hrs by MTT assay; format: functional, cell-based; conditions: MV4-11, 72 h
[13] = system: SK-N-BE(2); experiment: Antiproliferative activity against human SK-N-BE(2) cells assessed as inhibition of cell growth incubated for 72 hrs by MTT assay; format: functional, cell-based; conditions: SKNBE2, 72 h
[14] = biological target: Myc proto-oncogene protein (Homo sapiens) (UniProt P01106); experiment: Inhibition of MYC in human PC-3 cells assessed as downregulation of MYC expression at 1 uM incubated for 24 hrs by Western blotting analysis relative to control; format: cell-based
[15] = biological target: c-Myc/c-Max (Homo sapiens) (UniProt P01106+P61244); experiment: Inhibition of MYC/MAX protein-protein interaction in human PC-3 cells at 10 uM incubated for 1 hr by Co-immunoprecipitation based immunoblotting analysis; format: cell-based
Sequence of c-Myc/c-Max (Homo sapiens) (P01106 whole entry): as above
Sequence of c-Myc/c-Max (Homo sapiens) (P61244 2-160 partner limits assumed): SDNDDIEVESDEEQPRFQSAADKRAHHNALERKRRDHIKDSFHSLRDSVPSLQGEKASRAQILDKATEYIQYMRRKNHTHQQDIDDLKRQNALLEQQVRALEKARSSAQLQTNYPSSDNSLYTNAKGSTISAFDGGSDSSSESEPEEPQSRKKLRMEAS

[16] = system: HCT-116; experiment: Antiproliferative activity against human HCT-116 cells assessed as inhibition of cell growth incubated for 72 hrs by MTT assay; format: functional, cell-based; conditions: HCT-116, 72 h
[17] = Cytotoxicity against human HUVEC cells assessed as inhibition of cell growth incubated for 72 hrs by MTT assay; format: toxicity, cell-based

SMILES	pIC50 [1]	also measured
Oc1c(-c2cc(C(F)(F)F)n[nH]2)ccc(C#CCCN2CCN(C3COC3)CC2)c1-c1ccc(Cl)c(C(F)(F)F)c1	5.72	–
CN(C)CC#Cc1c(OCc2ccc(Cl)cc2)ccc(-c2cc(C(F)(F)F)n[nH]2)c1O	< 4.00	–
CN1CCN(CC#Cc2ccc(-c3cc(C(F)(F)F)nn3C)c(O)c2-c2ccc(Cl)c(C(F)(F)F)c2)CC1	4.70	–
Oc1c(-c2cc(C(F)(F)F)n[nH]2)ccc(C#CCCN2CCCCC2)c1-c1ccc(Cl)c(C(F)(F)F)c1	5.47	–
Oc1c(-c2cc(C(F)(F)F)n[nH]2)ccc(C#CCCN2CC3(COC3)C2)c1-c1ccc(Cl)c(C(F)(F)F)c1	5.55	–
CN1CCN(CC#Cc2ccc(-c3cc(C(F)(F)F)n[nH]3)c(O)c2-c2ccc(Cl)c(C(F)(F)F)c2)CC1	5.38	–
Cn1nc(C(F)(F)F)cc1-c1ccc(OCc2ccc(Cl)cc2)c(-c2ccc(Cl)c(C(F)(F)F)c2)c1O	5.18	inhibition [2]: Dose-Dependent Effect; pIC50 [3]: 5.38; pIC50 [4]: 5.36; pIC50 [5]: 5.42; pIC50 [6]: 5.80; pIC50 [7]: 5.23; pIC50 [8]: 5.37; pIC50 [9]: 5.76; IC50 at 72 h [10]: > 100 µM; pIC50 [11]: 5.15; pIC50 [12]: 5.82; pIC50 [13]: 5.76; inhibition [14]: 31%; inhibition [15]: Active; pIC50 [16]: 5.86; IC50 at 72 h [17]: > 100 µM
Oc1c(-c2cc(C(F)(F)F)n[nH]2)ccc(C#CCN2CCOCC2)c1-c1ccc(Cl)c(C(F)(F)F)c1	5.69	–
Cn1nc(C(F)(F)F)cc1-c1ccc(C#CCN2CCOCC2)c(-c2ccc(Cl)c(C(F)(F)F)c2)c1O	4.23	–
CN1CCN(CCC#Cc2ccc(-c3cc(C(F)(F)F)n[nH]3)c(O)c2-c2ccc(Cl)c(C(F)(F)F)c2)CC1	5.51	–
Cn1nc(C(F)(F)F)cc1-c1ccc(C#CCCC(C)(C)O)c(-c2ccc(Cl)c(C(F)(F)F)c2)c1O	4.52	–
Cn1nc(C(F)(F)F)cc1-c1ccc(OCc2ccc(Cl)cc2)c(C#CCCCO)c1O	< 4.00	–
Cn1nc(C(F)(F)F)cc1-c1ccc(C#CCCCO)c(-c2ccc(Cl)c(C(F)(F)F)c2)c1O	4.18	–
CN1CCN(CC#Cc2c(OCc3ccc(Cl)cc3)ccc(-c3cc(C(F)(F)F)nn3C)c2O)CC1	4.78	–
CC(C)(O)CCC#Cc1ccc(-c2cc(C(F)(F)F)n[nH]2)c(O)c1-c1ccc(Cl)c(C(F)(F)F)c1	5.63	–

Continued, in another order:

pIC50 [1]	SMILES	also measured
4.48	Oc1c(-c2cc(C(F)(F)F)n[nH]2)ccc(OCc2ccc(Cl)cc2)c1C#CCN1CCC(O)CC1	–
5.44	Oc1c(-c2cc(C(F)(F)F)n[nH]2)ccc(OCc2ccc(Cl)cc2)c1C#CCCN1CCCCC1	–
5.35	Oc1c(-c2cc(C(F)(F)F)n[nH]2)ccc(OCc2ccc(Cl)cc2)c1C#CCCCN1CCCCC1	–
5.00	Oc1c(-c2cc(C(F)(F)F)n[nH]2)ccc(OCc2ccc(Cl)cc2)c1C#CCCCN1CCOCC1	–
5.08	Oc1c(-c2cc(C(F)(F)F)n[nH]2)ccc(OCc2ccc(Cl)cc2)c1C#CCN1CCN(C2COC2)CC1	–
5.16	CN1CCN(CC#Cc2c(OCc3ccc(Cl)cc3)ccc(-c3cc(C(F)(F)F)n[nH]3)c2O)CC1	–
5.31	Oc1c(-c2cc(C(F)(F)F)n[nH]2)ccc(OCc2ccc(Cl)cc2)c1C#CCCN1CC2(COC2)C1	–
< 4.00	Oc1c(-c2cc(C(F)(F)F)n[nH]2)ccc(OCc2ccc(Cl)cc2)c1C#CCN1CCC(N2CCOCC2)CC1	–
5.07	Oc1c(-c2cc(C(F)(F)F)n[nH]2)ccc(OCc2ccc(Cl)cc2)c1C#CCCN1CCOCC1	–
< 4.00	Oc1c(-c2cc(C(F)(F)F)n[nH]2)ccc(OCc2ccc(Cl)cc2)c1C#CCN1CCCC1	–
4.14	Oc1c(-c2cc(C(F)(F)F)n[nH]2)ccc(OCc2ccc(Cl)cc2)c1C#CCN1CCOCC1	–
4.51	OCCC#Cc1c(OCc2ccc(Cl)cc2)ccc(-c2cc(C(F)(F)F)n[nH]2)c1O	–
5.07	CN1CCN(CCCC#Cc2c(OCc3ccc(Cl)cc3)ccc(-c3cc(C(F)(F)F)n[nH]3)c2O)CC1	–
4.63	Oc1c(-c2cc(C(F)(F)F)n[nH]2)ccc(OCc2ccc(Cl)cc2)c1C#CCN1CC2(COC2)C1	–
4.89	OCCCC#Cc1c(OCc2ccc(Cl)cc2)ccc(-c2cc(C(F)(F)F)n[nH]2)c1O	–
< 4.00	Cn1nc(C(F)(F)F)cc1-c1ccc(OCc2ccc(Cl)cc2)c(C#CCN2CCOCC2)c1O	–
5.17	CC(C)(O)CCC#Cc1c(OCc2ccc(Cl)cc2)ccc(-c2cc(C(F)(F)F)n[nH]2)c1O	–
5.22	Oc1c(-c2cc(C(F)(F)F)n[nH]2)ccc(OCc2ccc(Cl)cc2)c1C#CCCN1CCC(O)CC1	–
4.36	Oc1c(-c2cc(C(F)(F)F)n[nH]2)ccc(OCc2ccc(Cl)cc2)c1C#CCN1CCCCC1	–
4.81	CN1CCN(CCC#Cc2c(OCc3ccc(Cl)cc3)ccc(-c3cc(C(F)(F)F)n[nH]3)c2O)CC1	–
